According to patent publication US20240327463A1, “ANTIBACTERIAL PRODUCTS” (priority 2017, published 2024):
≈ marks a conversion by molar mass, not a printed value. Bridge positions count the residues as written; N and C are the ends. Square brackets hold non-standard residues; d marks the D form. Peptide text beside a SMILES is read from it. * marks the point of attachment. dNMeF = CN[C@H](Cc1ccccc1)C(=O)O; X2 = O=C(CCCCCN1CNC(=S)NC1)*; X3 = O=C(CCCN1CNC(=S)NC1)*; X4 = O=C(CN1CNC(=S)NC1)*

Key:
[1] = system: S. aureus ATCC 25923; format: cell-based, Staphylococcus aureus
Description: (§1) Bacteria were grown on Mueller Hinton broth (oxoid). All incubations were at 37° C. Dilutions were carried out using Mueller Hinton. […] This process was repeated up to well 11. […] This was repeated three times. […] Results are tabulated in the Examples.

[2] = system: MRSA ATCC 33591; settings: MRSA ATCC 33591
Summary of the method: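 Twofold dilutions of DMSO-solubilised peptides (from 512 μg/ml) in Mueller Hinton; 24 h incubation, 37° C; visible growth scored.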

[3] = system: VRE 1004; format: cell-based, Enterococcus faecalis
Description: as §1

[4] = system: VRE 1002; format: cell-based, Enterococcus faecalis
Description: as §1

[5] = system: VRE 1001; format: cell-based, Enterococcus faecalis
Description: as §1

[6] = system: VRE 1008; format: cell-based, Enterococcus faecalis
Description: as §1

[7] = system: VRE ATCC 700802; assay: microbe, parasite or virus in culture; settings: ATCC 700802
Description: (§2) For MIC testing all peptides were dissolved in DMSO (according to the method of L. L. Ling, et al., Nature 2015, 517, 455-459). Bacteria were grown on Mueller Hinton broth (oxoid). All incubations were at 37° C. Dilutions were carried out using Mueller Hinton. 100 μl of autoclaved Mueller Hinton broth was added to wells 2-12 on a 96-well plate. 200 μl of the peptide was added to well one at a concentration of 512 μg/ml. 100 μl of peptide in well one was taken up and pipetted into well two. The mixture was then mixed via pipetting before 100 μl was taken up and pipetted into well three. This process was repeated up to well 11. […] This was repeated three times. The 96-well plates were then incubated for 24 hours. The MIC was determined to be the lowest concentration at which there was no growth visible.

[8] = system: MRSA DR 42412 (sputum); assay: microbe, parasite or virus in culture; settings: DR 42412 (sputum)
Description: as §2

[9] = system: VRE ATCC 29212; assay: microbe, parasite or virus in culture; settings: ATCC 29212
Description: as §2

[10] = system: MRSA DM21455 (eye); assay: microbe, parasite or virus in culture; settings: DM21455 (eye)
Description: as §2

[11] = system: Staphylococcus aureus ATCC 29213; assay: microbe, parasite or virus in culture; settings: ATCC 29213
Description: as §2

[12] = system: MRSA ATCC 700699; assay: microbe, parasite or virus in culture; settings: ATCC 700699
Description: as §2

[13] = system: Staphylococcus saprophyticus ATCC 15305; format: cell-based; settings: ATCC 15305
Description: as §1

[14] = system: SA4299; format: cell-based; settings: Table 11
Description: as §1

[15] = system: Staphylococcus saprophyticus ATCC 49453; format: cell-based; settings: ATCC 49453
Description: as §1

[16] = system: SE12228; format: cell-based
Description: as §1

[17] = system: Bacillus Subtilis ATCC 6633; format: cell-based
Description: as §1

[18] = system: Staphylococcus saprophyticus ATCC 49907; format: cell-based; settings: ATCC 49907
Description: as §1

[19] = system: Bacillus Cereus ATCC 11788; format: cell-based
Description: as §1

[20] = system: Staphylococcus saprophyticus ATCC BAA 750; format: cell-based; settings: ATCC BAA 750
Description: as §1

[21] = system: MRSA 1003; format: cell-based, Staphylococcus aureus
Description: as §1

**Q.** With `CC[C@@H](C)[C@@H](NC(=O)[C@@H](CCC(N)=O)NC(=O)[C@H](CO)NC(=O)[C@@H](NC(=O)[C@@H](Cc1ccccc1)NC)[C@@H](C)CC)C(=O)N[C@H](C(=O)N[C@@H](CO)C(=O)N[C@H]1C(=O)N[C@@H](C)C(=O)N[C@@H](CCCCNC(=O)CN2CNC(=S)NC2)C(=O)N[C@@H]([C@@H](C)CC)C(=O)O[C@H]1C)[C@@H](C)CC` [Compound 22, Gly-thiourea-Lys10-teixobactin] (H-[dNMeF]IS[dQ][dI]IS[dT]AK(X4)I; ester 8-C) as the compound, how does the “MIC against S. aureus ATCC 25923” value [1] read?
**A.** 2 µg/mL (≈ 1.46 µM)

**Q.** Which results are given for `CC[C@@H](C)[C@@H](NC(=O)[C@@H](CCCNC(=N)N)NC(=O)[C@H](CCCNC(=N)N)NC(=O)[C@@H](NC(=O)[C@@H](Cc1ccccc1)NC)[C@@H](C)CC)C(=O)N[C@H](C(=O)N[C@@H](CO)C(=O)N[C@H]1C(=O)N[C@@H](C)C(=O)N[C@@H](CC(C)C)C(=O)N[C@@H]([C@@H](C)CC)C(=O)O[C@H]1C)[C@@H](C)CC` [Compound 28, Arg3-D-Arg4-Leu10-teixobactin] (H-[dNMeF]IR[dR][dI]IS[dT]ALI; ester 8-C)?
**A.** MIC against MRSA ATCC 33591 [2]: 0.25 µg/mL (≈ 0.193 µM); MIC [3]: 0.5 µg/mL (≈ 0.385 µM); MIC [4]: 1 µg/mL (≈ 0.77 µM); MIC [5]: 1 µg/mL (≈ 0.77 µM); MIC [6]: 0.5 µg/mL (≈ 0.385 µM); MIC [7]: 2 µg/mL (≈ 1.54 µM); MIC [8]: 0.25 µg/mL (≈ 0.193 µM); MIC [9]: 1 µg/mL (≈ 0.77 µM); MIC [10]: 0.5 µg/mL (≈ 0.385 µM); MIC [11]: 0.25 µg/mL (≈ 0.193 µM); MIC [12]: 0.5 µg/mL (≈ 0.385 µM); MIC [13]: <0.0625 µg/mL; MIC [14]: 0.25 µg/mL (≈ 0.193 µM); MIC [15]: <0.0625 µg/mL; MIC [16]: <0.0625 µg/mL; MIC [17]: <0.0625 µg/mL; MIC [18]: <0.0625 µg/mL; MIC [19]: 1 µg/mL (≈ 0.77 µM); MIC [20]: <0.0625 µg/mL; MIC [21]: 1 µg/mL (≈ 0.77 µM)

**Q.** How did the “MIC against S. aureus ATCC 25923” value [1] turn out when `CC[C@@H](C)[C@@H](NC(=O)[C@@H](CCC(N)=O)NC(=O)[C@H](CO)NC(=O)[C@@H](NC(=O)[C@@H](Cc1ccccc1)NC)[C@@H](C)CC)C(=O)N[C@H](C(=O)N[C@@H](CO)C(=O)N[C@H]1C(=O)N[C@@H](C)C(=O)N[C@@H](CCCCNC(=O)CCCN2CNC(=S)NC2)C(=O)N[C@@H]([C@@H](C)CC)C(=O)O[C@H]1C)[C@@H](C)CC` [Compound 23, GABA-thiourea-Lys10-teixobactin] (H-[dNMeF]IS[dQ][dI]IS[dT]AK(X3)I; ester 8-C) was run?
**A.** 2 µg/mL (≈ 1.43 µM)

**Q.** How did the “MIC against S. aureus ATCC 25923” value [1] turn out when `CC[C@@H](C)[C@@H](NC(=O)[C@@H](CCC(N)=O)NC(=O)[C@H](CO)NC(=O)[C@@H](NC(=O)[C@@H](Cc1ccccc1)NC)[C@@H](C)CC)C(=O)N[C@H](C(=O)N[C@@H](CO)C(=O)N[C@H]1C(=O)N[C@@H](C)C(=O)N[C@@H](CCCCNC(=O)CCCCCN2CNC(=S)NC2)C(=O)N[C@@H]([C@@H](C)CC)C(=O)O[C@H]1C)[C@@H](C)CC` [Compound 24, Ahx-thiourea-Lys10-teixobactin] (H-[dNMeF]IS[dQ][dI]IS[dT]AK(X2)I; ester 8-C) was run?
**A.** 2 µg/mL (≈ 1.4 µM)
